Test results taken from patent publication US20050060764A1, “Mouse model for bone metabolism” (priority 2003, published 2005).
Strand notation (5' to 3'): a small letter for the sugar, then the base; units joined by * are phosphorothioate-linked, units joined directly phosphodiester-linked; [ ] holds rarer units or linkages, { } end groups; capitals alone tell only the bases. e = 2'-O-(2-methoxyethyl) (MOE); [5mC] = 5-methylcytosine; d = 2'-deoxy (DNA)

How the values were obtained:
Type in all cases: in vivo, mouse
[1] = Serum calcium concentration after RANK antisense oligonucleotide treatment and PTH infusion: dose response and delivery method (Table 12)
Protocol: In accordance with the present invention, ISIS 181071 was evaluated for its ability to inhibit RANK expression and PTH-induced serum calcium concentration increase following 18 days of oligonucleotide treatment.
Female Swiss-Webster mice (5-8 wks old), fed a low-calcium diet, were treated for 18 days with ISIS 181071 (SEQ ID NO: 356) at different doses and through different delivery methods. The dose of oligonucleotide was either 30 mg/kg, 20 mg/kg, 10 mg/kg, 3 mg/kg, or 0.1 mg/kg administered by daily subcutaneous injections for the first five days, followed by mini-pump infusion for the remaining 13 days, or the dose was 10 mg/kg or 30 mg/kg administered daily by subcutaneous injection for the entire 18 day period. After 18 days of treatment with oligonucleotides, the mice were infused with PTH by subcutaneously implanted mini-pumps at a dose of 1 ug/100 g/6 hr. A group of control mice received saline, calcitonin (400 ng) plus PTH (1 ug/100 g/6 hr) or PTH alone (1 ug/100 g/6 hr). After 24 hours of PTH infusion (total PTH delivery of 4ug/100 g), the mice were sacrificed and measurements were made of serum calcium with the Sigma Diagnostics Calcium Kit (Sigma-Aldrich) and RANK mRNA expression in proximal tibia (as described in other examples herein). The results are shown in Table 12 are normalized to PTH treatment alone and are the average of four mice per group.

[2] = Serum calcium concentration after PTH infusion in mice treated with RANK antisense oligonucleotide: dosing schedule study (Table 14)
Protocol: In accordance with the present invention, various antisense oligonucleotide dosing schedules were tested for their ability to inhibit serum calcium concentration increase resulting from PTH infusion.
Female Swiss-Webster mice (5-8 wks old) were fed a low-calcium diet. The mice were dosed with the same total amount of ISIS 181071 (SEQ ID NO: 356) (450 mg/kg), however the frequency of the dosage was varied. The first group received daily injections for […]. The second group received daily injections of 30 mg/kg/day for 5 days; the remaining 300 mg/kg was divided into 12 injections over 24 days and were administered every other day. The third group received daily injections of 30 mg/kg/day for 5 days; the remaining 300 mg/kg was divided into 8 injections over 24 days and were administered every third day. The fourth group received daily injections of 30 mg/kg/day for 5 days; the remaining 300 mg/kg was divided into 6 injections over 24 days and were administered every fourth day. Each group contained eight mice. Treatment with oligonucleotides was followed with infusion of PTH by subcutaneously implanted mini-pumps at a dose of 1 ug/100 g/6 hr. A control group received saline or PTH alone (1 ug/100 g/6 hr). After 24 hours of PTH infusion (total PTH delivery of 4 ug/100 g), the mice were sacrificed and the serum calcium concentration was measured with the Sigma Diagnostics Calcium Kit (Sigma-Aldrich). The data are shown in Table 14 and are the average of eight mice per group.

[3] = Serum calcium concentration in mice treated with RANK antisense oligonucleotide, no PTH: dose response and delivery method (Table 11)
Protocol: In accordance with the present invention, antisense inhibition of the RANKL receptor, RANK, was evaluated in the short-term model of bone resorption. Serum calcium concentration was measured in mice treated with RANK antisense oligonucleotides at different doses, delivered by subcutaneous mini-pumps or subcutaneous injection.
ISIS 181071 ([…], SEQ ID NO: 356) is an antisense oligonucleotide targeted to mouse RANK. […] All cytidine residues are 5-methylcytidines.
Female Swiss-Webster mice (5-8 wks old), fed a low-calcium diet were treated with ISIS 181071 (SEQ ID NO: 356) for 15 days. The dose of oligonucleotide was either 30 mg/kg, 20 mg/kg, 10 mg/kg, 3 mg/kg, or 0.1 mg/kg administered by daily subcutaneous injections for the first five days, followed by mini-pump infusion for the remaining 10 days, or the dose was 10 mg/kg or 30 mg/kg administered daily by subcutaneous injection for the entire 15 day period. No PTH was administered to the mice that received oligonucleotide. A group of control mice were treated with either saline, PTH alone (1 ug/100 g/6 hr) or calcitonin (400 ng) plus PTH (1 ug/100 g/6 hr). After […] (total PTH delivery of 3 ug/100 g), blood samples were taken from the tail of the mice and the serum calcium concentration was measured with the Sigma Diagnostics Calcium Kit (Sigma-Aldrich). […] Thus, increase in serum calcium concentration is due to the PTH treatment rather than the oligonucleotide treatment.

[4] = Serum calcium concentration 24 hours after PTH infusion in mice treated with RANKL antisense oligonucleotides (Table 10); details: no oligonucleotide treatment, PTH 1 ug/100 g/6 hr 24 h, calcitonin 400 ng

## TCCTCGAGAGGTCTCCTTGC (antisense eT*e[5mC]*e[5mC]*eT*e[5mC]*dG*dA*dG*dA*dG*dG*dT*d[5mC]*dT*d[5mC]*e[5mC]*eT*eT*eG*e[5mC]) [ISIS 181071, 2′-MOE gapmer antisense oligonucleotide targeted to mouse RANK]
[1]; 0.1 mg/kg, injection 5 days then infusion 13 days, then 24 h PTH
  serum calcium: 21 mg/dL
[1]; 3 mg/kg, injection 5 days then infusion 13 days, then 24 h PTH
  serum calcium: 20 mg/dL
[1]; 10 mg/kg daily subcutaneous injection 18 days, then 24 h PTH
  serum calcium: 18 mg/dL
[1]; 10 mg/kg, injection 5 days then infusion 13 days, then 24 h PTH
  serum calcium: 18 mg/dL
[1]; 20 mg/kg, injection 5 days then infusion 13 days, then 24 h PTH
  serum calcium: 18 mg/dL
[1]; 30 mg/kg daily subcutaneous injection 18 days, then 24 h PTH
  serum calcium: 14 mg/dL
[1]; 30 mg/kg, injection 5 days then infusion 13 days, then 24 h PTH
  serum calcium: 17 mg/dL
[2]; mice, total 450 mg/kg, various dosing schedules, 24 hours PTH infusion
  rise in serum calcium concentration in response to PTH infusion: can similarly prevent the rise in serum calcium concentration
[2]; total 450 mg/kg, 30 mg/kg/day 5 days then every fourth day (6 injections over 24 days), then 24 h PTH
  Serum calcium concentration: 18 mg/dL
[2]; total 450 mg/kg, 30 mg/kg/day 5 days then every other day (12 injections over 24 days), then 24 h PTH
  Serum calcium concentration: 16 mg/dL
[2]; total 450 mg/kg, 30 mg/kg/day 5 days then every third day (8 injections over 24 days), then 24 h PTH
  Serum calcium concentration: 17 mg/dL
[2]; total 450 mg/kg, daily injections for 2 weeks, then 24 h PTH
  Serum calcium concentration: 16 mg/dL
[3]; 0.1 mg/kg, injection 5 days then mini-pump infusion 10 days, no PTH
  Serum calcium concentration: 9 mg/dL
[3]; 3 mg/kg, injection 5 days then mini-pump infusion 10 days, no PTH
  Serum calcium concentration: 9 mg/dL
[3]; 10 mg/kg daily subcutaneous injection 15 days, no PTH
  Serum calcium concentration: 9 mg/dL
[3]; 10 mg/kg, injection 5 days then mini-pump infusion 10 days, no PTH
  Serum calcium concentration: 9 mg/dL
[3]; 20 mg/kg, injection 5 days then mini-pump infusion 10 days, no PTH
  Serum calcium concentration: 9 mg/dL
[3]; 30 mg/kg daily subcutaneous injection 15 days, no PTH
  Serum calcium concentration: 8 mg/dL
[3]; 30 mg/kg, injection 5 days then mini-pump infusion 10 days, no PTH
  Serum calcium concentration: 9 mg/dL

B1: parathyroid hormone (peptide, UniProt P01270 32-115, looked up)
Parathyroid hormone: SVSEIQLMHNLGKHLNSMERVEWLRKKLQDVHNFVALGAPLAPRDAGSQRPRKKEDNVLVESHEKSLGEADKADVNVLTKAKSQ
notes: parathyroid hormone infused to induce bone resorption in the mouse model
[1]; control mice, no oligonucleotide, PTH 1 ug/100 g/6 hr 24 h, calcitonin 400 ng
  serum calcium: 20 mg/dL
[2]; control group, PTH alone 1 ug/100 g/6 hr, 24 h
  Serum calcium concentration: 21 mg/dL
[4]; control groups under ISIS 180814 columns
  serum calcium: 22 mg/dL
[4]; control groups under ISIS 180819 columns
  serum calcium: 22 mg/dL
[3]; control mice, no oligonucleotide, PTH 1 ug/100 g/6 hr, calcitonin 400 ng, after 16 hours
  Serum calcium concentration: 9 mg/dL
